The source made the active and inactive calls. No cut-off for these calls is given here.

From ChEMBL document CHEMBL3046928, “Skimmianine, a furoquinoline alkaloid from Zanthoxylum nitidum as a potential acetylcholinesterase inhibitor” (Med Chem Res, 2012) come the findings set out here.

The target of experiment [1] is T1, Acetylcholinesterase (Homo sapiens, UniProt P22303).
For experiment [2], the target named is T1, Acetylcholinesterase. As to conditions: at 0.1 mg/mL.
The target of experiment [3] is T1, Acetylcholinesterase. Kind of experiment: Inhibition of AChE (unknown origin) at 10 mg/ml after 20 min by TLC bioautographic assay.

T1 sequence (P22303 whole entry): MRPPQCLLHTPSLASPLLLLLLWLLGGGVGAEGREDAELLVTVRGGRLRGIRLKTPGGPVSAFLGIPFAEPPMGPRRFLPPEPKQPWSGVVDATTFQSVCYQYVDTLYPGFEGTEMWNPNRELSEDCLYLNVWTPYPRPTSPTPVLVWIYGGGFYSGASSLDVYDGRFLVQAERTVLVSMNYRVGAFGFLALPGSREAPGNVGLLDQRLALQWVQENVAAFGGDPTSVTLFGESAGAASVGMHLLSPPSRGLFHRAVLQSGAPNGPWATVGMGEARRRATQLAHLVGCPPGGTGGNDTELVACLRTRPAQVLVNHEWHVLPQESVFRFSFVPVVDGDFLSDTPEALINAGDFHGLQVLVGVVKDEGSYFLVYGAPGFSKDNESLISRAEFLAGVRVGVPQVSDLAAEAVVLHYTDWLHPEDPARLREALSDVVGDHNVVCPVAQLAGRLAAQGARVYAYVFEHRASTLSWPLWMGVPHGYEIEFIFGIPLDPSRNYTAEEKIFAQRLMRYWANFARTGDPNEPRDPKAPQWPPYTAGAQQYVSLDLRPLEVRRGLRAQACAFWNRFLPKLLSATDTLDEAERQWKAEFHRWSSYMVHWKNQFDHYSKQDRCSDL

On to `COc1cc2oc(=O)ccc2c(OC)c1OC` [5,6,7-TRIMETHOXYCOUMARIN], for which the IC50 – broadly, the midpoint of a concentration-inhibition curve – at Acetylcholinesterase [1] (read-out: IC50 (converted)) was above 423 µM. At Acetylcholinesterase [2], the inhibition (as a rule, the drop in the measured response relative to a control, in per cent) turned out to be 49.7%.
As for `COc1c2ccccc2nc2occc12` [DICTAMNINE], at Acetylcholinesterase [1], the IC50 result was “Not Active”. On Acetylcholinesterase [2], this compound had an inhibition of 12.6%.
On to `COc1cc(=O)[nH]c2c(OC)cccc12` [EDULITINE], for which the IC50 on Acetylcholinesterase [1] (read-out: IC50 (converted)) was above 487 µM. For the same compound, at Acetylcholinesterase [2], the inhibition was 45.1%.
For the compound `COc1cc2oc(=O)ccc2c(OC)c1C[C@@H](O)C(C)(C)O` [TODDALOLACTONE], at Acetylcholinesterase [1], the IC50 result is “Not Active”. Further, the inhibition against Acetylcholinesterase [2] came to 33.9%.
On the same counts, the results for `COc1c2ccoc2nc2c(OC)cccc12` [GAMMA-FAGARINE] are “Not Active” and 24.3%.
For the compound `COc1cccc2c3c(c(=O)n(C)c12)[C@@H](O)[C@H](O)C(C)(C)O3` (relative stereo) [REL-ZANTHODIOLINE], on Acetylcholinesterase [1], the IC50 entry was “Not Active”. On Acetylcholinesterase [2], this compound returned an inhibition of 34.4%.
For `COc1c2[nH]c3occc3c(OC)c-2ccc1=O` [HAPLOPINE], at Acetylcholinesterase [1] (read-out: IC50 (converted)), the IC50 was above 408 µM. On Acetylcholinesterase [2], the inhibition was determined as 51.9%.
`COc1ccc2c(OC)c3ccoc3nc2c1OC` [SKIMMIANINE]: on Acetylcholinesterase [3], the inhibition result was “Active”. Moreover, the IC50 at Acetylcholinesterase [1] (read-out: IC50 (converted)) is 33.2 µM. Further, on Acetylcholinesterase [2], the inhibition was 91.3%.
For the compound `COc1c(C[C@H](C)C(C)(C)O)c(=O)n(C)c2ccccc12` [(-)-(S)-EDULININE], the IC50 entry against Acetylcholinesterase [1] is given as “Not Active”. In addition, on Acetylcholinesterase [2], the inhibition turned out to be 19.4%.
The corresponding values for `COc1ccc(C(=O)[C@@H]2CO[C@H](c3ccc4c(c3)OCO4)[C@H]2CO)cc1OC` [MAGNOLONE] are “Not Active” and 9.9%.
